Measured values published in patent US20050288255A1, “Modulation of lysophosphatidylcholine and treatment of diet-induced conditions” (priority 2004, published 2005).

Experiments:
Assay type in all cases: cell-based
3T3L1 adipocytes = test: Insulin-stimulated [3H]deoxyglucose uptake in differentiated 3T3L1 adipocytes with varying LPC; settings: 100 nM insulin, 30 min, under reduced levels of lysophosphatidylcholine, FIG. 5(c)
Method: (§1) Effects of LPC on glucose metabolism were assessed using (a) HepG2 cells as a model of liver cells, (b) differentiated L6 myotubes as a model of skeletal muscle cells and (c) differentiated 3T3L1 cells as a model of adipocytes. To assess usage of glucose for glycogen biosynthesis, cells were incubated in Krebs Ringer Hepes medium with 5 mM [^14C]glucose, 100 nM insulin, and varying concentrations of LPC. At the end of the incubation period, the cells were washed and detached from the plates with 30% KOH. Carrier glycogen was then added to the cell lysate at a concentration of 40 mg/ml and then boiled for 30 min. Glycogen was precipitated from the solution by the addition of 800 μl 95% ice-cold ethanol and centrifuged at 1000×g. The pellet was re-suspended in buffer, and an aliquot of the sample was counted in a scintillation counter to determine the amount of [^14C]glucose converted to glycogen. Glucose metabolism by differentiated 3T3L1 cells was assessed based on cellular uptake of [^3H]deoxyglucose. The 3T3L1 cells were incubated in Krebs Ringer Hepes medium with 5 mM [^3H]deoxyglucose, 100 nM insulin, and varying concentration of LPC. Glucose uptake was assessed based on cellular accumulation of [^3H]deoxyglucose after a 30 min incubation period.

L6 myotube = test: Insulin-stimulated [14C]glucose conversion to glycogen in differentiated L6 myotubes with varying LPC; settings: 100 nM insulin, under reduced levels of lysophosphatidylcholine, FIG. 5(b)
Method: as §1

HepG2 cells = test: Insulin-stimulated [14C]glucose conversion to glycogen in HepG2 cells with varying LPC; settings: 100 nM insulin, under reduced levels of lysophosphatidylcholine, FIG. 5(a)
Method: as §1

Measured: insulin-stimulated glucose metabolism

lysophosphatidylcholine
increased: all assays above
